In ChEMBL document CHEMBL1821577, “Discovery of GSK1997132B a novel centrally penetrant benzimidazole PPARγ partial agonist” (Bioorg Med Chem Lett, 2011):
≈ marks a conversion by molar mass, not a printed value. Values belong to the compound of their own block, whether it stands above or below them.

What was measured:
[1] = target: T1, Peroxisome proliferator-activated receptor gamma (Homo sapiens, UniProt P37231); assay: Partial agonist activity at human PPARgamma by luciferase reporter gene assay; format: functional
T1 sequence (P37231 whole entry): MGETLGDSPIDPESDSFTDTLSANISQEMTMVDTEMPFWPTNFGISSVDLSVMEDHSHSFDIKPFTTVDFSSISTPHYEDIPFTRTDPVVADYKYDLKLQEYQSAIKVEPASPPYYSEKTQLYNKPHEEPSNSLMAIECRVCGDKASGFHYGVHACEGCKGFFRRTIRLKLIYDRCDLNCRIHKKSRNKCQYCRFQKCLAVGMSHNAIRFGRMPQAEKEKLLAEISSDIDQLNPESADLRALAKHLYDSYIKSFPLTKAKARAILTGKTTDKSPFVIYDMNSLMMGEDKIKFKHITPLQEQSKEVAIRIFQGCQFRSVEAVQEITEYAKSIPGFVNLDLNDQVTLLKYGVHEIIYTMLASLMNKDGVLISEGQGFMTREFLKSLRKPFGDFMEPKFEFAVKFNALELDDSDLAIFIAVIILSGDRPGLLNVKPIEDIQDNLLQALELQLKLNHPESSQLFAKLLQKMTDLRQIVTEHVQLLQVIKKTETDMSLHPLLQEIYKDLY

[2] = target: T2, Peroxisome proliferator-activated receptor gamma (Homo sapiens) (UniProt P37231); assay: Activity at human PPARgamma by luciferase reporter gene assay; design: concentration or dose not given beside the values
T2 sequence (whole entry): T1 sequence (P37231 whole entry)

[3] = tested on: Liver microsomes; assay: Intrinsic clearance in rat liver microsome; format: ADME
[4] = tested on: Liver microsomes; assay: Intrinsic clearance in human liver microsome; format: ADME
[5] = tested on: Rattus norvegicus; assay: Blood clearance at steady state in rat at 2 mg/kg/h, iv; format: ADME, organism-based; design: route intravenous; conditions: in vivo
[6] = Ratio of drug uptake in brain to blood at steady state in rat at 2 mg/kg/h, iv; format: ADME, organism-based; design: route intravenous
[7] = tested on: Brain; assay: Drug uptake in rat brain at steady state at 2 mg/kg/h, iv; format: ADME, organism-based; design: route intravenous; conditions: in vivo, read-out: Drug uptake
[8] = tested on: Liver; assay: Intrinsic clearance in rat liver S9 fraction; format: ADME, subcellular
[9] = target: T3, Peroxisome proliferator-activated receptor alpha (Homo sapiens, UniProt Q07869); assay: Partial agonist activity at PPARalpha by luciferase reporter gene assay; format: functional
T3 sequence (Q07869 whole entry): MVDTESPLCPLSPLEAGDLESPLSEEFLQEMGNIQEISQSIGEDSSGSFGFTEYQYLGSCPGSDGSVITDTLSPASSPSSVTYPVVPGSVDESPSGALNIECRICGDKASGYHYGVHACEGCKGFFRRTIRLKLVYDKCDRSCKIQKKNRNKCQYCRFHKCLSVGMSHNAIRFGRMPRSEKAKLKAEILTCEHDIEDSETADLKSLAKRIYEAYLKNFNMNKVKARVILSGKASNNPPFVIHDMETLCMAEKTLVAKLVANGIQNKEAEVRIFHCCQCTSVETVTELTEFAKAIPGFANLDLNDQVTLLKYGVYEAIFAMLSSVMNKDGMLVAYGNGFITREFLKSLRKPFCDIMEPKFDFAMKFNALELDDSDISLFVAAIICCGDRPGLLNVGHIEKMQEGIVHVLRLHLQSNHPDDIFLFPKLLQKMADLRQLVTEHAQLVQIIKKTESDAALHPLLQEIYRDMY

[10] = target: T4, Peroxisome proliferator-activated receptor delta (Homo sapiens, UniProt Q03181); assay: Partial agonist activity at PPARdelta by luciferase reporter gene assay; format: functional
T4 sequence (Q03181 whole entry): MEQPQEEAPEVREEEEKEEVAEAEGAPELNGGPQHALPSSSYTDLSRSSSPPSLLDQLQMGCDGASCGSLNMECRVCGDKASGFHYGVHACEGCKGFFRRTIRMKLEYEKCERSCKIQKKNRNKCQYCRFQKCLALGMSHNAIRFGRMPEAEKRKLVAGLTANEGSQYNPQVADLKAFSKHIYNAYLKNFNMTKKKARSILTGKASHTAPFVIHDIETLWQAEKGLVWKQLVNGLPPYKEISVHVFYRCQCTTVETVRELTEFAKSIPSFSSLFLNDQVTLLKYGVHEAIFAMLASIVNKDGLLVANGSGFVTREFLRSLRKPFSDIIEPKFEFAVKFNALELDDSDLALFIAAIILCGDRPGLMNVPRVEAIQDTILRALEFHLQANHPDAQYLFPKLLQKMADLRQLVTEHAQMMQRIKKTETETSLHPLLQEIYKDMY

[11] = tested on: Liver; assay: Intrinsic clearance in mouse liver microsome; format: ADME; conditions: microsomes
[12] = tested on: Mus musculus; assay: Blood clearance in mouse at 1 mg/kg, iv; format: ADME, organism-based; design: dose 1 mg/kg, route intravenous; conditions: in vivo
[13] = Fraction unbound in rat blood; format: ADME, tissue-based
[14] = Fraction unbound in rat brain; format: ADME, tissue-based
[15] = tested on: Brain; assay: Free drug level rat brain at 1 mg/kg, iv; format: ADME, organism-based; design: dose 1 mg/kg, route intravenous; conditions: in vivo
[16] = target: T5, Cytochrome P450 1A2 (Homo sapiens, UniProt P05177); assay: Inhibition of CYP1A2; format: ADME
T5 sequence (P05177 whole entry): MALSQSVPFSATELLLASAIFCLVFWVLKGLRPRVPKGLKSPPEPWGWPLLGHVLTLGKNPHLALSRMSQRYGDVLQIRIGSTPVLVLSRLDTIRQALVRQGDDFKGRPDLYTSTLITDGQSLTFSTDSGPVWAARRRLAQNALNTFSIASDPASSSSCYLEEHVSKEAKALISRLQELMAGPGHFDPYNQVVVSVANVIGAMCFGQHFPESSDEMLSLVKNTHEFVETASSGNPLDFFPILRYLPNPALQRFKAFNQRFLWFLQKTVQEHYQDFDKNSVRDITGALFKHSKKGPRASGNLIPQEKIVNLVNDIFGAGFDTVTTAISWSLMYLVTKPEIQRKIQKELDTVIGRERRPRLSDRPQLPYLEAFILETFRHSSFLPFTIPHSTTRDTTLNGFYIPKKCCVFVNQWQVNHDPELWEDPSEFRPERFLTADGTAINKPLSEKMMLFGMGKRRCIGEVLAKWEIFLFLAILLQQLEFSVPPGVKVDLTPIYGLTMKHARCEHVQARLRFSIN

[17] = target: Cytochrome P450 2C19 (Homo sapiens, UniProt P33261); assay: Inhibition of CYP2C19; format: ADME
[18] = target: Cytochrome P450 2C9 (Homo sapiens, UniProt P11712); assay: Inhibition of CYP2C9; format: ADME
[19] = target: Cytochrome P450 2D6 (Homo sapiens, UniProt P10635); assay: Inhibition of CYP2D6; format: ADME
[20] = target: T6, Cytochrome P450 3A4 (Homo sapiens, UniProt P08684); assay: Inhibition of CYP3A4 using DEF substrate; format: ADME
[21] = target: T6, Cytochrome P450 3A4; assay: Inhibition of CYP3A4 using 7-benzyloxyquinoline as substrate; format: ADME
[22] = Solubility of the compound in water after 0.5 hrs; format: physicochemical
[23] = Solubility of the compound in simulated gastric fluid after 0.5 hrs; format: physicochemical
[24] = Solubility of the compound in fasted state simulated intestinal fluid after 0.5 hrs; format: physicochemical
[25] = Solubility of the compound in fed state simulated intestinal fluid after 0.5 hrs; format: physicochemical
[26] = tested on: P-gp (human MDR1); assay: Permeability of the compound from apical to basolateral direction in dog MDCK2 expressing human MDR1 cells by PGP assay; format: ADME, cell-based, Canis lupus familiaris, MDCK-II; conditions: MDCK-MDR1, read-out: permeability
[27] = tested on: P-gp (human MDR1); assay: Efflux ratio of permeability in dog MDCK2 expressing human MDR1 cells by PGP assay; format: ADME, cell-based, Canis lupus familiaris, MDCK-II; conditions: MDCK-MDR1

T6 sequence (P08684 whole entry): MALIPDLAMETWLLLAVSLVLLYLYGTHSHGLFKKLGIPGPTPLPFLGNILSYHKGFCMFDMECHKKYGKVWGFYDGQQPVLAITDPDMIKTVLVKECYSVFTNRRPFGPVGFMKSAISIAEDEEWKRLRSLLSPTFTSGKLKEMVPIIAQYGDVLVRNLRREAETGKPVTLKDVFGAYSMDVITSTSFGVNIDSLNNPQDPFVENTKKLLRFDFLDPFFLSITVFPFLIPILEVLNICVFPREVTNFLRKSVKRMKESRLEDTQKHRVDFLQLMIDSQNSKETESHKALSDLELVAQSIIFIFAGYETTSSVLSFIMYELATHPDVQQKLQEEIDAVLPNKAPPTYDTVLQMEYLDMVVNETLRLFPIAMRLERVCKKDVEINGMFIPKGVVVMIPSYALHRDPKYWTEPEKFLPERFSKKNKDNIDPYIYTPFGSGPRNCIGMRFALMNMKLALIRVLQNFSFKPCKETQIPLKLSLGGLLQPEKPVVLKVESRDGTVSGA
Chain of Cytochrome P450 2C19 (P33261 whole entry): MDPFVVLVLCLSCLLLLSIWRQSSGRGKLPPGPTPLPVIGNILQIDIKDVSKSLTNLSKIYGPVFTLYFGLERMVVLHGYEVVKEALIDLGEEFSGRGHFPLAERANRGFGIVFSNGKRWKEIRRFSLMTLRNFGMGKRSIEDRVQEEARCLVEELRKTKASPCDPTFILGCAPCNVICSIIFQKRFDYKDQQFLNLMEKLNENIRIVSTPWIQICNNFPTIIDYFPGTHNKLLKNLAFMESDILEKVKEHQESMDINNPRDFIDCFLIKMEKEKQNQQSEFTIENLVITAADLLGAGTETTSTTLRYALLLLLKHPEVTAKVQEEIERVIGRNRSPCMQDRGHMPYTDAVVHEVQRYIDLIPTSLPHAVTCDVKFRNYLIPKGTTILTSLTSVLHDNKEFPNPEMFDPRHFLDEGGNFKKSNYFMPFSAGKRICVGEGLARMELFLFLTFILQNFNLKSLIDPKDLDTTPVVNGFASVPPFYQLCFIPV
Chain of Cytochrome P450 2C9 (P11712 whole entry): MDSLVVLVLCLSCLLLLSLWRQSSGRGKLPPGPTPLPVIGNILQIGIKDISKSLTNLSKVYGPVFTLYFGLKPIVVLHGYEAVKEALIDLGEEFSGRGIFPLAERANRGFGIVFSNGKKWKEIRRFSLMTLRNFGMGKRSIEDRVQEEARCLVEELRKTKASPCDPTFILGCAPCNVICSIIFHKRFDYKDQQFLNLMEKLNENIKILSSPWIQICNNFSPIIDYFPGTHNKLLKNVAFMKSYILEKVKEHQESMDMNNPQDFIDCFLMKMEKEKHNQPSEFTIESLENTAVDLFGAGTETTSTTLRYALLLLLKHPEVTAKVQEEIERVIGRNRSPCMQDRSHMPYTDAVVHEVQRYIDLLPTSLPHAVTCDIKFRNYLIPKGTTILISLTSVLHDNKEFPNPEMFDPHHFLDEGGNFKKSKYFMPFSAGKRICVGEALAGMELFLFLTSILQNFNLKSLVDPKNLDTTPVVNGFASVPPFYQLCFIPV
Chain of Cytochrome P450 2D6 (P10635 whole entry): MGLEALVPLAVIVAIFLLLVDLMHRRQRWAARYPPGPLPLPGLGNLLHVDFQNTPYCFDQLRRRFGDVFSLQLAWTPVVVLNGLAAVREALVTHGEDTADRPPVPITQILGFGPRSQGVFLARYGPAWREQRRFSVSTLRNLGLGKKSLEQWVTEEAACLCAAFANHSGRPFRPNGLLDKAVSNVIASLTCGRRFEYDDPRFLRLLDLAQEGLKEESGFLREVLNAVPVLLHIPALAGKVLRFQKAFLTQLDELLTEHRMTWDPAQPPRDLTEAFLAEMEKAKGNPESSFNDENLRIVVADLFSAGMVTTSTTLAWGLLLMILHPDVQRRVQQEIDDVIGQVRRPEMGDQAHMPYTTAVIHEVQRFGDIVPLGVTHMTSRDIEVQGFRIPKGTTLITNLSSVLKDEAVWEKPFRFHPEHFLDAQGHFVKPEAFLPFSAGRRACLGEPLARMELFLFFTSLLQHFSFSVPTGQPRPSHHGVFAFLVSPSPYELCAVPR

SMILES: CC[C@@H](NC(=O)c1ccc2c(c1)ncn2Cc1ccc(Cl)cc1Cl)c1ccccc1
EC50 [1]: 0.501 nM
Activity [2]: 77%

SMILES: CC[C@@H](NC(=O)c1ccc2c(c1)ncn2Cc1ccc(Cl)cn1)c1ccccc1
EC50 [1]: 39.8 nM
Activity [2]: 80%

SMILES: CC[C@@H](NC(=O)c1ccc2c(c1)ncn2Cc1ccc(Cl)cc1)c1ccccc1
EC50 [1]: 3.16 nM
Activity [2]: 74%

SMILES: CC[C@@H](NC(=O)c1ccc2c(c1)ncn2Cc1ncccc1Cl)c1ccccc1
EC50 [1]: 15.8 nM
Activity [2]: 81%

SMILES: CC[C@@H](NC(=O)c1ccc2c(c1)nc(C)n2Cc1ccc(S(C)(=O)=O)cc1)c1ccccc1
EC50 [1]: 5010 nM
Activity [2]: 48%

SMILES: CC[C@@H](NC(=O)c1ccc2c(c1)ncn2Cc1ccc(F)cc1F)c1ccccc1
EC50 [1]: 1.58 nM
Activity [2]: 73%
CL [3]: 3.7 mL/min/g
CL [4]: 0.5 mL/min/g
clearance [5]: 107 mL/min/kg
Kp [6]: 0.59
concentration [7]: 455 nM

SMILES: CC[C@@H](NC(=O)c1ccc2c(c1)ncn2Cc1ccccc1F)c1ccccc1
EC50 [1]: 7.94 nM
Activity [2]: 80%

SMILES: CC[C@@H](NC(=O)c1ccc2c(c1)ncn2Cc1ccccc1S(C)(=O)=O)c1ccccc1
EC50 [1]: 398 nM
Activity [2]: 73%

SMILES: CC[C@@H](NC(=O)c1ccc2c(c1)ncn2Cc1ncc(F)cc1F)c1ccccc1
EC50 [1]: 10 nM
Activity [2]: 68%
CL [3]: 1.2 mL/min/g
CL [4]: 0.5 mL/min/g
CL [8]: 1.6 mL/min/g
clearance [5]: 30 mL/min/kg
Kp [6]: 0.22
concentration [7]: 446 nM
fraction unbound [13]: 0.175
fraction unbound [14]: 0.115
Drug uptake [15]: 51 nM
IC50 [16]: 14000 nM
IC50 [17]: 87000 nM
IC50 [18]: 42000 nM
IC50 [19]: 65000 nM
IC50 [20]: 45000 nM
IC50 [21]: > 100000 nM
solubility at 0.5 h [22]: 330 µg/mL (≈ 812 µM)
solubility at 0.5 h [23]: > 1000 µg/mL
solubility at 0.5 h [24]: 80 µg/mL (≈ 197 µM)
solubility at 0.5 h [25]: 220 µg/mL (≈ 541 µM)
Papp A→B [26]: 122 ×10⁻⁶ cm/s
efflux ratio [27]: 1.6

Other lines, results leading:

EC50 [1]: 31.6 nM
Activity [2]: 66%
SMILES: CC[C@@H](NC(=O)c1ccc2c(c1)nc(C)n2Cc1ccc(Cl)cc1)c1ccccc1

EC50 [1]: 79.4 nM
Activity [2]: 75%
SMILES: CCC(=O)c1nc2cc(C(=O)N[C@H](CC)c3ccccc3)ccc2n1Cc1ccc(Cl)c(Cl)c1

EC50 [1]: 631 nM
Activity [2]: 50%
SMILES: Cc1nc2cc(C(=O)N[C@@H](C)c3ccccc3)ccc2n1Cc1ccc(Cl)c(Cl)c1

EC50 [1]: 2.51 nM
Activity [2]: 71%
CL [3]: 3.3 mL/min/g
CL [4]: 0.6 mL/min/g
CL [8]: 10 mL/min/g
clearance [5]: 84 mL/min/kg
Kp [6]: 0.71
concentration [7]: 655 nM
SMILES: CC[C@@H](NC(=O)c1ccc2c(c1)ncn2Cc1ccc(Cl)c(Cl)c1)c1ccccc1

EC50 [1]: 126 nM
Activity [2]: 58%
SMILES: CC[C@@H](NC(=O)c1ccc2c(c1)nc(C1CC1)n2Cc1ccc(Cl)c(Cl)c1)c1ccccc1

EC50 [1]: 158 nM
Activity [2]: 74%
SMILES: CC[C@@H](NC(=O)c1ccc2c(c1)nc(C)n2Cc1ccc(F)cc1)c1ccccc1

EC50 [1]: 50.1 nM
Activity [2]: 64%
EC50 [9]: > 10000 nM
EC50 [10]: > 10000 nM
CL [11]: 1.75 mL/min/g
CL [3]: 2.5 mL/min/g
CL [4]: 0.5 mL/min/g
clearance [12]: 736 mL/min/kg
SMILES: CCC(NC(=O)c1ccc2c(c1)nc(C)n2Cc1ccc(Cl)c(Cl)c1)c1ccccc1 (stereo not given)
